In article PMC11062922 (Nature Chemical Biology, 2023) one finds CATDS data, which are given here for five compounds.

One assay relates to LIMK1. As to the kind of experiment: Kinobeads competition binding: LIMK1. Set-up: species or system human. The following applies: target LIMK1.
The target in the next assay is T1, MAPKAPK2 (Homo sapiens, UniProt P49137).
T1 construct: endogenous in cells
As to the kind of experiment: Kinobeads competition binding: MAPKAPK2. Conditions: target MAPKAPK2.

For a further assay, the target named is T2, FYN (Homo sapiens, UniProt P06241).
T2 construct: endogenous in cells
As to the kind of experiment: Kinobeads competition binding: FYN.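 Note: share of total target engagement due to this protein at one drug concentration.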 Conditions: target FYN. The text has this:
Supplement 41589_2023_1459_MOESM4_ESM.xlsx, sheet "CATDS matrix" | column: FYN

The target in a further assay is T3, PIK3C3 (Homo sapiens, UniProt Q8NEB9).
T3 construct: a mixture of lysates from five cancer cell lines; endogenous in cells
As to the kind of experiment: Kinobeads competition binding: PIK3C3. The following applies: target PIK3C3.

The next assay relates to MARK4. As to the kind of experiment: Kinobeads competition binding: MARK4. Set-up: species or system human. Conditions: target MARK4.
A further assay deals with BMPR1A. The assay is described as follows: Kinobeads competition binding: BMPR1A. Conditions: target BMPR1A. The arrangement: species or system human.
The next assay concerns MAP3K11. The assay is described as follows: Kinobeads competition binding: MAP3K11. Conditions: target MAP3K11. The arrangement: species or system human.
Another assay has as its system MARK3. As to the kind of experiment: Kinobeads competition binding: MARK3. The following applies: target MARK3. Set-up: species or system human.
The target in a further assay is T4, EPHB4 (Homo sapiens, UniProt P54760).
T4 construct: endogenous in cells
T4 sequence (P54760 16-987): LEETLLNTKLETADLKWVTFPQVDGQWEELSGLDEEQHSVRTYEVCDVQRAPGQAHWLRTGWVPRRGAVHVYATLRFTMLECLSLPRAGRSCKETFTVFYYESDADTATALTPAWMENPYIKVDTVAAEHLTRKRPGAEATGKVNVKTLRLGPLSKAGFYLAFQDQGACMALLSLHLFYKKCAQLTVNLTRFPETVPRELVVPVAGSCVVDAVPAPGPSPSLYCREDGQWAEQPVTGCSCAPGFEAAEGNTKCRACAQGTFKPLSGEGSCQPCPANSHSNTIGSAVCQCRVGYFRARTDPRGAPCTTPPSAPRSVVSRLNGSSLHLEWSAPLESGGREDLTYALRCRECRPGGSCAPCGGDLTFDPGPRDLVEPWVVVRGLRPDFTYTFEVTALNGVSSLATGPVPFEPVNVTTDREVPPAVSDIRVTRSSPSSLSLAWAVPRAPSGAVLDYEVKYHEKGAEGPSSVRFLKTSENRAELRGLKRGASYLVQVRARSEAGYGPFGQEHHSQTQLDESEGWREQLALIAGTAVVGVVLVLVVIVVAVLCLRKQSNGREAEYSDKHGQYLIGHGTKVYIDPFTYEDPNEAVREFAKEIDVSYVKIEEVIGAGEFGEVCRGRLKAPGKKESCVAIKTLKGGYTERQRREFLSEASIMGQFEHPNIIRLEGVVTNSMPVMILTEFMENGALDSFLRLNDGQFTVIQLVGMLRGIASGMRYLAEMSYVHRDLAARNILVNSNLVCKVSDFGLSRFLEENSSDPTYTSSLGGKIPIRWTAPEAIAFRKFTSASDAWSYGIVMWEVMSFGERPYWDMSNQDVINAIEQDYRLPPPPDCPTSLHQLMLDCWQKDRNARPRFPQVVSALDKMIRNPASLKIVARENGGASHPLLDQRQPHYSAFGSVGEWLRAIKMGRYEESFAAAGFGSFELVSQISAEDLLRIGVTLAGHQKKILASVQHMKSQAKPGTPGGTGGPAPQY
As to the kind of experiment: Kinobeads competition binding: EPHB4. The following applies: target EPHB4.

Another assay relates to MAPK10. As to the kind of experiment: Kinobeads competition binding: MAPK10. The following applies: target MAPK10. The arrangement: species or system human.
The test system of a further assay is ADK. The assay is described as follows: Kinobeads competition binding: ADK.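 Note: selectivity score: engagement of this protein divided by summed engagement of all targets.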 Conditions: target ADK. Set-up: species or system human.
For the next assay, the target named is T5, MAPK14 (Homo sapiens, UniProt Q16539).
T5 construct: endogenous in cells
As to the kind of experiment: Kinobeads competition binding: MAPK14. Conditions: target MAPK14.

A further assay addresses T6, NQO1 (Homo sapiens, UniProt P15559).
T6 construct: endogenous in cells
The assay is described as follows: Kinobeads competition binding: NQO1. Conditions: target NQO1. The source says:
Supplement 41589_2023_1459_MOESM4_ESM.xlsx, sheet "CATDS matrix" | column: NQO1

In the next assay the target is T7, EPHB2 (Homo sapiens, UniProt P29323).
T7 construct: endogenous in cells
T7 sequence (P29323 19-1055): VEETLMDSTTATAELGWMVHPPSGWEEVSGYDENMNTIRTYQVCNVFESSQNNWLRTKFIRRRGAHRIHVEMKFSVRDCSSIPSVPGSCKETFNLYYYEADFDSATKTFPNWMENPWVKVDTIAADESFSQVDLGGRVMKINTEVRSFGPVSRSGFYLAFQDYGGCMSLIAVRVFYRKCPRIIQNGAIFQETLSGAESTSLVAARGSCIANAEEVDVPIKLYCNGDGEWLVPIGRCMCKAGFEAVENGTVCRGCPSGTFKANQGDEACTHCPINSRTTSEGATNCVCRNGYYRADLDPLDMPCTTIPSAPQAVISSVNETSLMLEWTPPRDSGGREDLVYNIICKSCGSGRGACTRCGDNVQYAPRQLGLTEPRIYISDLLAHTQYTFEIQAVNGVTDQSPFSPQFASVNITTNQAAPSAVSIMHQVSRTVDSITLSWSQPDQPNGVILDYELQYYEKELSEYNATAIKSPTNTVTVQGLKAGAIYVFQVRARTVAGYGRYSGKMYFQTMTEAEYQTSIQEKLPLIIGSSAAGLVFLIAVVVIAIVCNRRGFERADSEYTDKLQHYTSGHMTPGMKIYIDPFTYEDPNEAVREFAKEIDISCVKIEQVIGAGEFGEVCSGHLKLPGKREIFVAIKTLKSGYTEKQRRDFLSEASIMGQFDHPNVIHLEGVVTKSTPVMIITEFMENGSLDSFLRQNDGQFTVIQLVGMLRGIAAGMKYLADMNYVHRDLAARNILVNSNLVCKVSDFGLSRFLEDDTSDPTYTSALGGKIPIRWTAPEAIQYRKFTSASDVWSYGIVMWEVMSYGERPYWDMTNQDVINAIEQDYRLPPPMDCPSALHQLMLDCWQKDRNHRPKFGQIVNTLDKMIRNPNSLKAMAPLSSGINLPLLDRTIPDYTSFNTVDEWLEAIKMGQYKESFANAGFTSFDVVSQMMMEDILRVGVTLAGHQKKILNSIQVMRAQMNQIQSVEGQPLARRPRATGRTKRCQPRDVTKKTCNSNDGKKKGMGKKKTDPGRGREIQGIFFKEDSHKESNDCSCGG
The assay is described as follows: Kinobeads competition binding: EPHB2.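 Note: target engagement share of this target among all targets at its Kdapp concentration.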 Conditions: target EPHB2. The text has this: Supplement 41589_2023_1459_MOESM4_ESM.xlsx, sheet "CATDS matrix" | column: EPHB2

Regarding `CCN1CCN(Cc2ccc(Nc3ncc(F)c(-c4cc(F)c5nc(C)n(C(C)C)c5c4)n3)nc2)CC1` [Abemaciclib], the CATDS with LIMK1, on MAPKAPK2, at FYN, on PIK3C3, with MARK4 and in the assay with BMPR1A was 0 in each case. Further, the CATDS with MAP3K11, in the assay on MARK3, on EPHB4, in the assay on MAPK10, with ADK and at MAPK14 was 0 in each case. Besides, the CATDS on NQO1 and on EPHB2 was 0 each time.

Consider `N#CC1(c2ccc(NC(=O)c3cccnc3NCc3ccncc3)cc2)CCCC1` [Apatinib], for which the CATDS in the assay on LIMK1, at MAPKAPK2, at FYN, on PIK3C3, in the assay with MARK4 and in the assay on BMPR1A was 0 each time. The CATDS with MAP3K11, with MARK3, at EPHB4, in the assay with MAPK10, with ADK and at MAPK14 was 0 throughout. For the same compound, the CATDS at NQO1 and on EPHB2 was 0 throughout.

Consider `CN(C)C/C=C/C(=O)Nc1cc2c(Nc3ccc(F)c(Cl)c3)ncnc2cc1O[C@H]1CCOC1` [Afatinib], for which the CATDS at FYN, with ADK, on NQO1 and at EPHB2 was 0 throughout.

Regarding `Nc1ncnc2[nH]c(-c3ccccc3)nc12` [AH5015_KCGS], the CATDS in the assay with LIMK1, at MAPKAPK2, on FYN, on PIK3C3, with MARK4 and with BMPR1A was 0 throughout. The CATDS in the assay with MAP3K11 was found to be 0; in the assay with MARK3, 0; at EPHB4, 0.03489; in the assay on MAPK10, 0; in the assay with ADK, 0; on MAPK14, 0. For the same compound, the CATDS on NQO1 amounted to 0; on EPHB2 it was 0.02863.

As to `CCc1cc2c(cc1N1CCC(N3CCOCC3)CC1)C(C)(C)c1[nH]c3cc(C#N)ccc3c1C2=O` [Alectinib], the CATDS in the assay with LIMK1, at MAPKAPK2, at FYN, on PIK3C3, in the assay on MARK4 and with BMPR1A was 0 each time. Moreover, the CATDS with MAP3K11, with MARK3, on EPHB4, in the assay on MAPK10, in the assay with ADK and at MAPK14 was 0 throughout. Besides, the CATDS at NQO1 and at EPHB2 was 0 each time.
